# Results taken from paper PMC9457810, “Synthesis, Structure and Antileishmanial Evaluation of Endoperoxide–Pyrazole Hybrids” (Molecules, 2022).
# Structures can show the parent of a compound that is named as a salt.
# Assays:
# L. major = tested on: L. major; design: method as in PMID 30215271; conditions: given in Figure 1A; cited from earlier work
# L. infantum = tested on: L. infantum; design: method as in PMID 26014947; conditions: given in Figure 1A; cited from earlier work
# L. donovani = tested on: L. donovani; design: method as in PMID 31979089; conditions: given in Figure 1A; cited from earlier work
# L. tropica promastigotes = assay: Leishmania promastigotes in vitro susceptibility (MTT), L. tropica; format: cell-based; conditions: Leishmania tropica, 48 h, at least three independent assays, read-out: Promastigotes Susceptibility IC50 ± SEM, L. tropica
# [1] = tested on: L. infantum promastigotes; assay: Leishmania promastigotes in vitro susceptibility (MTT), L. infantum; format: cell-based; conditions: Leishmania infantum, 48 h, at least three independent assays, read-out: Promastigotes Susceptibility IC50 ± SEM, L. infantum
# THP-1 cell line = assay: In vitro cytotoxicity assessment in THP-1 cell line (MTT); format: cell-based, human; conditions: THP-1 cells, 48 h, MTT; at least three independent assays; read-out: Cytotoxicity CC50 ± SEM
# Protocol: (§1) THP-1 (ATCC® TIB-202TM) human acute monocytic leukemic cell line was obtained from DSMZ, Germany and cultured in RPMI 1640 (Sigma, Darmstadt, Germany) supplemented with 10% (v/v) FBS, 1% (v/v) penicillin-streptomycin (Sigma), and L-glutamine 200 mM (Sigma) at 37 °C, 5% CO2.
# (§2) THP-1 cell line was used to calculate the endoperoxide–pyrazole hybrids’ half-maximal cytotoxic concentration (CC50). THP-1 was plated at a final density of 5 × 10^5 cells/mL, in 96-well flat bottom culture plates (VWR), using six different concentrations of the compounds (OZ1, OZ2, T1, T2 and PIR: 800, 400, 200, 100, 50, 25 µM) and amphotericin B (10, 5, 2.5, 1.25, 0.625, 0.313 µM). A blank (RPMI medium alone) and an untreated control (parasites with RPMI medium plus 1% DMSO as vehicle solution) were also included. All the compounds were plated out in quadruplicate and incubated for 48 h at 37 °C ± 1 °C, 5% CO2.
# (§3) Following the incubation period, 20 µL per well of MTT was added as described in Section 3.5.2. After absorbance readings, the CC50 values of each compound were determined with GraphPad Prism V 9.0 (Dotmatics, San Diego, CA, USA) as previously described. At least three independent assays were performed.
# [2] = Solubility in culture media (observation); format: physicochemical
# Excerpt: Calculated intrinsic aqueous solubility (ClogS) values show similar values between trioxolanes (1.20–1.38) and tetraoxanes (1.18–1.21). However, the poor solubility of dispiro 4′’-substituted tetraoxanes may be associated to their structural symmetry. A decrease in molecular symmetry has been correlated to better physicochemical properties, such as absorption and solubility, resulting in enhanced systemic exposure to a drug. So it is anticipated that 3′’-substituted analogues could overcome this solubility issue. Therefore, future optimization to 3”-substituted analogues should be considered. Likewise, conversion of the compounds into water-soluble salts, as well as encapsulation of the endoperoxide structures in delivery systems such as liposomes, could represent alternative strategies to solve the solubility issue.
# [3] = In vitro cytotoxicity assessment in THP-1 cell line (MTT); format: cell-based, human; conditions: human, THP-1 cells, 48 h, MTT; at least three independent assays; read-out: Cytotoxicity CC50 ± SEM
# Protocol: as §1, §2, §3
smiles,measurement,setting,value
"Nc1ccnn1C(=O)C1CCC2(CC1)OOC1(OO2)C2CC3CC(C2)CC1C3 (stereo not shown) (as salt: tosylate) [T1•TsOH, (5-Amino-1H-pyrazol-1-yl) (dispiro[cyclohexane-1,3′-[1,2,4,5]tetraoxane-6′,2″-tricyclo-[3.3.1.1^3,7]-decan]-4-yl) methanone p-tosylate]",melting point,,156 °C (dec.)
COc1ccc(-c2cn(-c3ccccc3)nc2/C=N/N=C/c2c(C)nn(-c3ccccc3)c2Cl)cc1 [3i],IC50,L. major,0.74 ± 0.1 µM
NCC1CCC2(CC1)OOC1(O2)C2CC3CC(C2)CC1C3 (stereo not shown) [LC95],IC50,L. infantum,9.35 ± 3.64 µM
O=C1CCC2(CC1)OOC1(OO2)C2CC3CC(C2)CC1C3 [LC140],IC50,L. donovani,2.52 ± 0.65 µM
"Nc1ccnn1C(=O)C1CCC2(CC1)OOC1(OO2)C2CC3CC(C2)CC1C3 (stereo not shown) [T1, (5-Amino-1H-pyrazol-1-yl)(dispiro[cyclohexane-1,3′-[1,2,4,5]tetraoxane-6′,2″-tricyclo-[3.3.1.1^3,7]-decan]-4-yl)methanone]",IC50,L. tropica promastigotes,> 400 µM
same,IC50,[1],> 400 µM
same,CC50,THP-1 cell line,> 800 µM
same,Solubility in M199 and RPMI medium,[2],low solubility
"Nc1ccn(C(=O)C2CCC3(CC2)OOC2(OO3)C3CC4CC(C3)CC2C4)n1 (stereo not shown) [T2, (3-Amino-1H-pyrazol-1-yl)(dispiro[cyclohexane-1,3′-[1,2,4,5]tetraoxane-6′,2″-tricyclo[3.3.1.1^3,7]decan]-4-yl)methanone]",CC50 at 48 h,[3],> 800 µM
same,Solubility in M199 and RPMI medium,[2],low solubility
